Laboratory results reported in publication PMC6891286, “Towards the Development of an In vivo Chemical Probe for Cyclin G Associated Kinase (GAK)” (Molecules, 2019).

Assays:
Test in all cases: KINOMEscan
Assay type in all cases: binding
Conditions in all cases: 35 at 1 µM; read-out: % inhibition
DYRK2 = target: T1, DYRK2 (Homo sapiens, UniProt Q92630)
T1 construct: purchased Eurofins DiscoverX (KINOMEscan)
Method: (§1) KinomeScan Assay on 35 was performed as previously described at EuroFins DiscoverX (Fremont, CA, USA).

NIK = target: T2, NIK (Homo sapiens, UniProt Q99558)
T2 construct: purchased Eurofins DiscoverX (KINOMEscan)
Method: as §1

JNK3 = target: T3, JNK3 (Homo sapiens, UniProt P53779)
T3 construct: purchased Eurofins DiscoverX (KINOMEscan)
Method: as §1

AKT2 = target: T4, AKT2 (Homo sapiens, UniProt P31751)
T4 construct: purchased Eurofins DiscoverX (KINOMEscan)
T4 sequence (P31751 whole entry): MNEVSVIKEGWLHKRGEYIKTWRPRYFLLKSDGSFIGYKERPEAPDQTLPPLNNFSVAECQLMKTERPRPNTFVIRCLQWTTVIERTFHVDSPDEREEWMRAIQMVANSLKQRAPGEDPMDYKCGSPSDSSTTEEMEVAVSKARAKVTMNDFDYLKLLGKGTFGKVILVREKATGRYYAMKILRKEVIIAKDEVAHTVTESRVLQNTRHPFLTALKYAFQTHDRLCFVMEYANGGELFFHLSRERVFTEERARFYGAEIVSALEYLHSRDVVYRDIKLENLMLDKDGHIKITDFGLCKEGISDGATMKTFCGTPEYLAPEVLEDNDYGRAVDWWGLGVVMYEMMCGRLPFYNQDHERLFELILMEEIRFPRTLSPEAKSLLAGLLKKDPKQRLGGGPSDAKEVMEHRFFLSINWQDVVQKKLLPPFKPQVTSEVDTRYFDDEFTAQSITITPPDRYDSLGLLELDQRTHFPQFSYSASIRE
Method: as §1

CASK = target: T5, CASK (Homo sapiens, UniProt O14936)
T5 construct: purchased Eurofins DiscoverX (KINOMEscan)
Method: as §1

[1] = target: T6, ABL1(H396P)-phosphorylated (Homo sapiens, UniProt P00519, H396P)
T6 construct: purchased Eurofins DiscoverX (KINOMEscan)
Method: as §1

PLK1 = target: T7, PLK1 (Homo sapiens, UniProt P53350)
T7 construct: purchased Eurofins DiscoverX (KINOMEscan)
T7 sequence (P53350 whole entry): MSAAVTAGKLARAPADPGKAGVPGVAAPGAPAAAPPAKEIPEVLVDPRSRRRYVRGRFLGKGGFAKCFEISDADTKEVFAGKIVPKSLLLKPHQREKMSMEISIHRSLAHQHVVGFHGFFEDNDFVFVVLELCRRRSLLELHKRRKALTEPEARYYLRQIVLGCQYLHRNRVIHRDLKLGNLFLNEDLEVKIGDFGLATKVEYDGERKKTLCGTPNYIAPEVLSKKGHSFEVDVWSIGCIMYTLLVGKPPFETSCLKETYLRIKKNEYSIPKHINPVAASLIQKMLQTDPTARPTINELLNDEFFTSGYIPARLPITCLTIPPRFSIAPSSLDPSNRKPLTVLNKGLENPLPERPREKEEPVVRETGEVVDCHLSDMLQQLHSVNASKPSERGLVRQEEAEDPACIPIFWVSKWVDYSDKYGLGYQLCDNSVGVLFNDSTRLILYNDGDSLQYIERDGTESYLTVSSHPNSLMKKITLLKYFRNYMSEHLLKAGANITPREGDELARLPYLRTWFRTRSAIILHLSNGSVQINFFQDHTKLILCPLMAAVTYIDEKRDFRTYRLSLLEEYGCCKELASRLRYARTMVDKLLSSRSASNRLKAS
Method: as §1

SNARK = target: T8, SNARK (Homo sapiens, UniProt Q9H093)
T8 construct: purchased Eurofins DiscoverX (KINOMEscan)
T8 sequence (Q9H093 whole entry): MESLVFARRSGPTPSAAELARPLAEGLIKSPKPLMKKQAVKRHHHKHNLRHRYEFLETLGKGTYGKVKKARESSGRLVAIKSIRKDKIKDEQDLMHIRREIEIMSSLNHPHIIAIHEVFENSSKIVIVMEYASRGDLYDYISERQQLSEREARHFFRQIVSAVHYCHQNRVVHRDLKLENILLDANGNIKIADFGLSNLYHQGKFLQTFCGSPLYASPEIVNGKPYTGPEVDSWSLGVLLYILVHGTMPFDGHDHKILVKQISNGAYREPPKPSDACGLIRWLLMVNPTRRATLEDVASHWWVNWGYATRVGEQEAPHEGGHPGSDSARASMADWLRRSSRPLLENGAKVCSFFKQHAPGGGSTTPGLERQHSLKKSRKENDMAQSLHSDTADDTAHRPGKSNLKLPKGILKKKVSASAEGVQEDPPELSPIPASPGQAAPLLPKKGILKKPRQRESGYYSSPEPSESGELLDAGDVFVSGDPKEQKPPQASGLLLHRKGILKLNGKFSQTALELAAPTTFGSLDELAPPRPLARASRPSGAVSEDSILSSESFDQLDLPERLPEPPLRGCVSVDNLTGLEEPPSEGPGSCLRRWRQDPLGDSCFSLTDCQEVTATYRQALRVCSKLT
Method: as §1

ABL1-phosphorylated = target: T9, ABL1-phosphorylated (Homo sapiens, UniProt P00519)
T9 construct: purchased Eurofins DiscoverX (KINOMEscan)
Method: as §1

TSSK3 = target: T10, TSSK3 (Homo sapiens, UniProt Q96PN8)
T10 construct: purchased Eurofins DiscoverX (KINOMEscan)
Method: as §1

MEK6 = target: T11, MEK6 (Homo sapiens, UniProt P52564)
T11 construct: purchased Eurofins DiscoverX (KINOMEscan)
Method: as §1

PRKD1 = target: T12, PRKD1 (Homo sapiens, UniProt Q15139)
T12 construct: purchased Eurofins DiscoverX (KINOMEscan)
Method: as §1

INSRR = target: T13, INSRR (Homo sapiens, UniProt P14616)
T13 construct: purchased Eurofins DiscoverX (KINOMEscan)
Method: as §1

STK39 = target: T14, STK39 (Homo sapiens, UniProt Q9UEW8)
T14 construct: purchased Eurofins DiscoverX (KINOMEscan)
Method: as §1

[2] = target: T15, TYK2(JH1domain-catalytic) (Homo sapiens, UniProt P29597)
T15 construct: TYK2(JH1domain-catalytic); purchased Eurofins DiscoverX (KINOMEscan)
T15 sequence (P29597 871-1187 limits assumed): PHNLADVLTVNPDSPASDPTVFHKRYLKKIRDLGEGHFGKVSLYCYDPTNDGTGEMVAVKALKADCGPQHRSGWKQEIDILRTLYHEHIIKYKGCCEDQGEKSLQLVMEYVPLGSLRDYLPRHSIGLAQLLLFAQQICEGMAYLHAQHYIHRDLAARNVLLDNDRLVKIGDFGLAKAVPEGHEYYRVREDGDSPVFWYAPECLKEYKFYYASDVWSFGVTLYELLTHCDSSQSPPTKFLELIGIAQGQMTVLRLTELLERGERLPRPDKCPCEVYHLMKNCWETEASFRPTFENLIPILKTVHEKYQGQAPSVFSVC
Method: as §1

[3] = target: T16, ABL1(Q252H)-nonphosphorylated (Homo sapiens, UniProt P00519, Q252H)
T16 construct: purchased Eurofins DiscoverX (KINOMEscan)
Method: as §1

CSNK2A2 = target: T17, CSNK2A2 (Homo sapiens, UniProt P19784)
T17 construct: purchased Eurofins DiscoverX (KINOMEscan)
Method: as §1

CDK8 = target: T18, CDK8 (Homo sapiens, UniProt P49336)
T18 construct: purchased Eurofins DiscoverX (KINOMEscan)
Method: as §1

SRPK3 = target: T19, SRPK3 (Homo sapiens, UniProt Q9UPE1)
T19 construct: purchased Eurofins DiscoverX (KINOMEscan)
Method: as §1

DYRK1A = target: T20, DYRK1A (Homo sapiens, UniProt Q13627)
T20 construct: purchased Eurofins DiscoverX (KINOMEscan)
Method: as §1

MEK4 = target: T21, MEK4 (Homo sapiens, UniProt P45985)
T21 construct: purchased Eurofins DiscoverX (KINOMEscan)
T21 sequence (P45985 whole entry): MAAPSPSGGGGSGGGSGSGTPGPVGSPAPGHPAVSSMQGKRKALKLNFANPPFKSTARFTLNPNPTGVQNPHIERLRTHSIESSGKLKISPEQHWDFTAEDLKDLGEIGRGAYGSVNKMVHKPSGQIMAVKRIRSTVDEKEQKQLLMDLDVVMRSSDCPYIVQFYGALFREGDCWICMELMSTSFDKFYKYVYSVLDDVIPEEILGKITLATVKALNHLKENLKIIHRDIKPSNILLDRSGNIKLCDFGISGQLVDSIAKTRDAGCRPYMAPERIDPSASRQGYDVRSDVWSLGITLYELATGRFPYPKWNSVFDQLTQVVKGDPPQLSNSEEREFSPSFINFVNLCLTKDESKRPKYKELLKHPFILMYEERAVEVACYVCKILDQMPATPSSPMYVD
Method: as §1

PCTK2 = target: T22, PCTK2 (Homo sapiens, UniProt Q00537)
T22 construct: purchased Eurofins DiscoverX (KINOMEscan)
T22 sequence (Q00537 whole entry): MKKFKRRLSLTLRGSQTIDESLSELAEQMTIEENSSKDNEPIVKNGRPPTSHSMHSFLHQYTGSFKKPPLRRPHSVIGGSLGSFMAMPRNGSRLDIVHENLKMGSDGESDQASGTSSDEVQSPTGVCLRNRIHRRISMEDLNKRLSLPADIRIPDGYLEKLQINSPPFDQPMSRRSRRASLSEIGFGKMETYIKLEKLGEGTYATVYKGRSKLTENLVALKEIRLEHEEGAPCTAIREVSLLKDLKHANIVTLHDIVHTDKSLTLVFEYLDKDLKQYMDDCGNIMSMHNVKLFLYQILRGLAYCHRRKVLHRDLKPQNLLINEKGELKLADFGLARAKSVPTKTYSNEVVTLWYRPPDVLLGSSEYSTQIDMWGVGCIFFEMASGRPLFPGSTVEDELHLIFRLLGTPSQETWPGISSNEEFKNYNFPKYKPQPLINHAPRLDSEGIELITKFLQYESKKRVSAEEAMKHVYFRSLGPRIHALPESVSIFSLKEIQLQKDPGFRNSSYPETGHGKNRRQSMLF
Method: as §1

TAOK1 = target: T23, TAOK1 (Homo sapiens, UniProt Q7L7X3)
T23 construct: purchased Eurofins DiscoverX (KINOMEscan)
Method: as §1

MAP3K1 = target: T24, MAP3K1 (Homo sapiens, UniProt Q13233)
T24 construct: purchased Eurofins DiscoverX (KINOMEscan)
Method: as §1

TGFBR1 = target: T25, TGFBR1 (Homo sapiens, UniProt P36897)
T25 construct: purchased Eurofins DiscoverX (KINOMEscan)
T25 sequence (P36897 34-503): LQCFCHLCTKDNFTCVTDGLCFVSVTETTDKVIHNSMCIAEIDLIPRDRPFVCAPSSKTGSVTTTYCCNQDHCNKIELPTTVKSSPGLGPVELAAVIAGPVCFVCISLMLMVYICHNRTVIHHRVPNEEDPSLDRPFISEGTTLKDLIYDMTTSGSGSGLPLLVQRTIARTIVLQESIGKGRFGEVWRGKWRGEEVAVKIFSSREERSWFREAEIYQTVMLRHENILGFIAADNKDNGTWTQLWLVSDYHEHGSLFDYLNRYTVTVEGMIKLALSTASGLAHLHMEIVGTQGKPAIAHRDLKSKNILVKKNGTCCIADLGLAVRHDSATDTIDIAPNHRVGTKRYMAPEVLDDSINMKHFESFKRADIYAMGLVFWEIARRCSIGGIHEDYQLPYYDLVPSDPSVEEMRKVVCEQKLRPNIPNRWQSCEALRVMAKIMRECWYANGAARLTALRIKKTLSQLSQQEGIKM
Method: as §1

PRKD2 = target: T26, PRKD2 (Homo sapiens, UniProt Q9BZL6)
T26 construct: purchased Eurofins DiscoverX (KINOMEscan)
Method: as §1

DRAK2 = target: T27, DRAK2 (Homo sapiens, UniProt O94768)
T27 construct: purchased Eurofins DiscoverX (KINOMEscan)
Method: as §1

PIM1 = target: T28, PIM1 (Homo sapiens, UniProt P11309)
T28 construct: purchased Eurofins DiscoverX (KINOMEscan)
Method: as §1

PAK4 = target: T29, PAK4 (Homo sapiens, UniProt O96013)
T29 construct: purchased Eurofins DiscoverX (KINOMEscan)
T29 sequence (O96013 whole entry): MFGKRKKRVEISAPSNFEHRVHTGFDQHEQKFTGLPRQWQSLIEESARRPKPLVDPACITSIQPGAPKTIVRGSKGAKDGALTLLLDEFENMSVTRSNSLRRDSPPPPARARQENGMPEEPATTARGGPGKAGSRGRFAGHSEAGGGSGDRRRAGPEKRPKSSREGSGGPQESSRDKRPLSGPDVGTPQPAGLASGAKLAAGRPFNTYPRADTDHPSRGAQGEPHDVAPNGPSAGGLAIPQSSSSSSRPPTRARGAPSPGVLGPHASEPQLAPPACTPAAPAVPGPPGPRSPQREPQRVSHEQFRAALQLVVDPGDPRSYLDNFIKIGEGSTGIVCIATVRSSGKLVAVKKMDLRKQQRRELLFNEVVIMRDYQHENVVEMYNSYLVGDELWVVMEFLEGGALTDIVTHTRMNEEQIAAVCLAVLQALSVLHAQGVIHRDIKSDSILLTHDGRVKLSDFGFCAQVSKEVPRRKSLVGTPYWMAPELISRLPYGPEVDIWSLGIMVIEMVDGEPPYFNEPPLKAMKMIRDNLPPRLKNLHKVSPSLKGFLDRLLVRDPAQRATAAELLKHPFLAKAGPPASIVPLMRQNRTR
Method: as §1

[4] = target: T30, RPS6KA4(Kin.Dom.1-N-terminal) (Homo sapiens, UniProt O75676)
T30 construct: RPS6KA4(Kin.Dom.1-N-terminal); purchased Eurofins DiscoverX (KINOMEscan)
Method: as §1

MELK = target: T31, MELK (Homo sapiens, UniProt Q14680)
T31 construct: purchased Eurofins DiscoverX (KINOMEscan)
Method: as §1

WNK3 = target: T32, WNK3 (Homo sapiens, UniProt Q9BYP7)
T32 construct: purchased Eurofins DiscoverX (KINOMEscan)
Method: as §1

RIPK1 = target: T33, RIPK1 (Homo sapiens, UniProt Q13546)
T33 construct: purchased Eurofins DiscoverX (KINOMEscan)
Method: as §1

CAMK1G = target: T34, CAMK1G (Homo sapiens, UniProt Q96NX5)
T34 construct: purchased Eurofins DiscoverX (KINOMEscan)
Method: as §1

TRKB = target: T35, TRKB (Homo sapiens, UniProt Q16620)
T35 construct: purchased Eurofins DiscoverX (KINOMEscan)
Method: as §1

ADCK4 = target: T36, ADCK4 (Homo sapiens, UniProt Q96D53)
T36 construct: purchased Eurofins DiscoverX (KINOMEscan)
Method: as §1

CDK4 = target: T37, CDK4 (Homo sapiens, UniProt P11802)
T37 construct: purchased Eurofins DiscoverX (KINOMEscan)
Method: as §1

[5] = target: T38, ABL1(F317L)-nonphosphorylated (Homo sapiens, UniProt P00519, F317L)
T38 construct: purchased Eurofins DiscoverX (KINOMEscan)
Method: as §1

DCAMKL3 = target: T39, DCAMKL3 (Homo sapiens, UniProt Q9C098)
T39 construct: purchased Eurofins DiscoverX (KINOMEscan)
Method: as §1

CDK7 = target: T40, CDK7 (Homo sapiens, UniProt P50613)
T40 construct: purchased Eurofins DiscoverX (KINOMEscan)
T40 sequence (P50613 whole entry): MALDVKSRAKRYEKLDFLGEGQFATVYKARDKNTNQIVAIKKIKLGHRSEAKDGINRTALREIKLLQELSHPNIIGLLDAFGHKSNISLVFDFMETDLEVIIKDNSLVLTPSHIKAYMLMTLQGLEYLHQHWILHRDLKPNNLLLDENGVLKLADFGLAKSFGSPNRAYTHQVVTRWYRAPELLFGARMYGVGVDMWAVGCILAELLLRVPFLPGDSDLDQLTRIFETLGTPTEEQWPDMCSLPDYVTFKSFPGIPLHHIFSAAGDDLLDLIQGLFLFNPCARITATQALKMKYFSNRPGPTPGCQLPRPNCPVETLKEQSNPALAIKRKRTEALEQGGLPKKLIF
Method: as §1

PLK4 = target: T41, PLK4 (Homo sapiens, UniProt O00444)
T41 construct: purchased Eurofins DiscoverX (KINOMEscan)
Method: as §1

EGFR(L858R) = target: T42, EGFR(L858R) (Homo sapiens, UniProt P00533, L858R)
T42 construct: purchased Eurofins DiscoverX (KINOMEscan)
Method: as §1

Measured: activity at 1 µM

T1 sequence (Q92630 whole entry): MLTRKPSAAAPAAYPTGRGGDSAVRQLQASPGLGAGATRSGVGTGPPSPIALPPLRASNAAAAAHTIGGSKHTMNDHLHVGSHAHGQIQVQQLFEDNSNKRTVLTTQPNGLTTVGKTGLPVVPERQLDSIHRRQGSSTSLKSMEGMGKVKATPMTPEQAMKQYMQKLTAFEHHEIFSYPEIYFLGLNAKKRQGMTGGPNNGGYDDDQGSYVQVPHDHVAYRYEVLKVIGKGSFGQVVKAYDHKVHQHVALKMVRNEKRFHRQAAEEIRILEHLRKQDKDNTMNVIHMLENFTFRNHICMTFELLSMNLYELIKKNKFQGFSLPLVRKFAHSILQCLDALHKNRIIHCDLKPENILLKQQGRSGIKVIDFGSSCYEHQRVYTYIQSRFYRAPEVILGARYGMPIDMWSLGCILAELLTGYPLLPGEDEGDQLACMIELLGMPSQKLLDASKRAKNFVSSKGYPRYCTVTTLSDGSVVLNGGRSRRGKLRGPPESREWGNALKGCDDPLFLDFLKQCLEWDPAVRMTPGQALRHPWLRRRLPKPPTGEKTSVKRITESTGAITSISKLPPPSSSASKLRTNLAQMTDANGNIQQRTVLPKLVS

Brc1ccc2nccc(Nc3ccc4cn[nH]c4c3)c2c1 [Compound 35, 6-Bromo-N-(1H-indazol-6-yl)quinolin-4-amine]
99%: DCAMKL3
58%: [3]
86%: MAP3K1
85%: TRKB
68%: CASK
78%: CDK4 | [5]
77%: TSSK3 | DYRK1A
95%: TAOK1
90%: PRKD2
83%: CDK8
46%: ABL1-phosphorylated
92%: WNK3
100%: all other assays above
